Source: PubChem BioAssay AID248 (DTP/NCI, 2004)
Toxic doses and inconclusive results are not listed. Rule as the data show it: active = T/C of 150% or more; inactive = T/C below 125%.

Test system: L1210 leukemia ip in BDF1 mice, survival T/C
Test: NCI In Vivo Anticancer Drug Screen. Data for tumor model L1210 Leukemia (intraperitoneal) in B6D2F1 (BDF1) mice
Details: endpoint: mean survival time, higher = longer survival
How it was run: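 Transplantable tumor model; survival measured in treated vs vehicle control mice. Value = treated/control.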

[1] = dose: 50.0 mg/kg/injection, schedule: Q01DX001 (ip), vehicle: saline
[2] = dose: 100.0 mg/kg/injection, schedule: Q01DX001 (ip), vehicle: saline
[3] = dose: 200.0 mg/kg/injection, schedule: Q01DX001 (ip), vehicle: saline
[4] = dose: 400.0 mg/kg/injection, schedule: Q01DX001 (ip), vehicle: saline
[5] = dose: 100.0 mg/kg/injection, schedule: Q04DX003 (ip), vehicle: saline with Tween-80
[6] = dose: 200.0 mg/kg/injection, schedule: Q04DX003 (ip), vehicle: saline with Tween-80
[7] = dose: 400.0 mg/kg/injection, schedule: Q04DX003 (ip), vehicle: saline with Tween-80
[8] = dose: 100.0 mg/kg/injection, schedule: Q04DX002 (ip), vehicle: saline with Tween-80
[9] = dose: 200.0 mg/kg/injection, schedule: Q04DX002 (ip), vehicle: saline with Tween-80
[10] = dose: 400.0 mg/kg/injection, schedule: Q04DX002 (ip), vehicle: saline with Tween-80
[11] = dose: 100.0 mg/kg/injection, schedule: Q04DX002 (ip), vehicle: saline
[12] = dose: 200.0 mg/kg/injection, schedule: Q04DX002 (ip), vehicle: saline
[13] = dose: 100.0 mg/kg/injection, schedule: Q04DX003 (ip), vehicle: Klucel (hydroxypropylcellulose) (HPC)
[14] = dose: 200.0 mg/kg/injection, schedule: Q04DX003 (ip), vehicle: Klucel (hydroxypropylcellulose) (HPC)
[15] = dose: 400.0 mg/kg/injection, schedule: Q04DX003 (ip), vehicle: Klucel (hydroxypropylcellulose) (HPC)

Measured: T/C

COC(=O)C(NC(C)=O)C(C)C (centres undefined)
inactive: dose: 6.25 mg/kg/injection, schedule: Q03HX024 (ip), vehicle: saline 97 % of control | dose: 12.5 mg/kg/injection, schedule: Q03HX024 (ip), vehicle: saline 96 % of control | dose: 25.0 mg/kg/injection, schedule: Q01DX001 (ip), vehicle: saline 100 % of control | dose: 25.0 mg/kg/injection, schedule: Q03HX024 (ip), vehicle: saline 89 % of control | [1] 96 % of control | dose: 50.0 mg/kg/injection, schedule: Q03HX024 (ip), vehicle: saline 89 % of control | [2] 101 % of control | dose: 100.0 mg/kg/injection, schedule: Q03HX024 (ip), vehicle: saline 105 % of control | [3] 99 % of control | [4] 106 % of control

CC(=O)OC(C(=O)c1ccccc1)C(=O)c1ccccc1
inactive: dose: 100.0 mg/kg/injection, schedule: Q01DX001 (ip), vehicle: Klucel (hydroxypropylcellulose) (HPC) 88 % of control | dose: 200.0 mg/kg/injection, schedule: Q01DX001 (ip), vehicle: Klucel (hydroxypropylcellulose) (HPC) 108 % of control | dose: 400.0 mg/kg/injection, schedule: Q01DX001 (ip), vehicle: Klucel (hydroxypropylcellulose) (HPC) 88 % of control

O/N=C\c1cc[n+](CC[n+]2ccc(/C=N/O)cc2)cc1
inactive: dose: 100.0 mg/kg/injection, schedule: Q04DX002 (ip), vehicle: other 112 % of control

O=C1OC(=O)C2CC(Cl)C(Cl)CC12 (centres undefined)
inactive: dose: 100.0 mg/kg/injection, schedule: Q01DX009 (ip), vehicle: saline with Tween-80 89 % of control | [5] 89 % of control | dose: 200.0 mg/kg/injection, schedule: Q01DX009 (ip), vehicle: saline with Tween-80 86 % of control | [6] 100 % of control | dose: 400.0 mg/kg/injection, schedule: Q01DX009 (ip), vehicle: saline with Tween-80 89 % of control | [7] 104 % of control

O=C(O)C1=C2C(=O)Nc3cccc(c32)C2(C1)C(=O)Nc1ccccc12 (centres undefined)
inactive: [8] 103 % of control | [9] 103 % of control | [10] 103 % of control

O=C(CBr)c1ccc2cc(Br)c3ccccc3c2c1
inactive: dose: 55.0 mg/kg/injection, schedule: Q01DX Z (ip), vehicle: methylcellulose (MC) 90 % of control | dose: 83.0 mg/kg/injection, schedule: Q01DX Z (ip), vehicle: methylcellulose (MC) 94 % of control | dose: 125.0 mg/kg/injection, schedule: Q01DX Z (ip), vehicle: methylcellulose (MC) 102 % of control

CCCCC#CC(=O)OCCCC
inactive: [11] 94 % of control | [12] 97 % of control | dose: 400.0 mg/kg/injection, schedule: Q04DX002 (ip), vehicle: saline 102 % of control

ClCCCOC1CCCCO1 (centres undefined)
inactive: [13] 89 % of control | [5] 107 % of control | [14] 95 % of control | [6] 96 % of control | [7] 96 % of control

O=S1(=O)CCCCc2c1ccc1ccccc21
inactive: [2] 101 % of control | [3] 90 % of control | [4] 106 % of control

CC(C)(C)C1CCC(N=C(N)CSS(=O)(=O)O)CC1 (centres undefined)
inactive: dose: 12.5 mg/kg/injection, schedule: Q04DX002 (ip), vehicle: Klucel (hydroxypropylcellulose) (HPC) 97 % of control | dose: 25.0 mg/kg/injection, schedule: Q04DX002 (ip), vehicle: Klucel (hydroxypropylcellulose) (HPC) 95 % of control

CCCCSCCN
inactive: dose: 75.0 mg/kg/injection, schedule: Q01DX009 (ip), vehicle: Klucel (hydroxypropylcellulose) (HPC) 95 % of control | dose: 150.0 mg/kg/injection, schedule: Q01DX009 (ip), vehicle: Klucel (hydroxypropylcellulose) (HPC) 93 % of control

CC(N)CNc1ccccc1 (centres undefined)
inactive: dose: 12.5 mg/kg/injection, schedule: Q04DX003 (ip), vehicle: water 105 % of control | dose: 25.0 mg/kg/injection, schedule: Q04DX003 (ip), vehicle: water 98 % of control | dose: 50.0 mg/kg/injection, schedule: Q04DX003 (ip), vehicle: water 104 % of control

CN(C)/N=N/c1nc[nH]c1C(N)=O.[Cl][Cu][Cl]
inactive: dose: 9.5 mg/kg/injection, schedule: Q01DX001 (ip), vehicle: saline 103 % of control | dose: 19.0 mg/kg/injection, schedule: Q01DX001 (ip), vehicle: saline 95 % of control | dose: 38.0 mg/kg/injection, schedule: Q01DX001 (ip), vehicle: saline 101 % of control

NC(=O)c1nc2ccccc2nc1C(N)=O
inactive: dose: 100.0 mg/kg/injection, schedule: Q01DX009 (ip), vehicle: Klucel (hydroxypropylcellulose) (HPC) 92 % of control | [13] 92 % of control | dose: 200.0 mg/kg/injection, schedule: Q01DX009 (ip), vehicle: Klucel (hydroxypropylcellulose) (HPC) 92 % of control | [14] 92 % of control | dose: 400.0 mg/kg/injection, schedule: Q01DX009 (ip), vehicle: Klucel (hydroxypropylcellulose) (HPC) 96 % of control | [15] 90 % of control

O=C(O)c1ccc(OCCOc2ccccc2)cc1
inactive: dose: 100.0 mg/kg/injection, schedule: Q01DX009 (ip), vehicle: saline sonified 90 % of control | dose: 200.0 mg/kg/injection, schedule: Q01DX009 (ip), vehicle: saline sonified 95 % of control | dose: 200.0 mg/kg/injection, schedule: Q04DX003 (ip), vehicle: saline sonified 100 % of control | dose: 400.0 mg/kg/injection, schedule: Q01DX009 (ip), vehicle: saline sonified 93 % of control | dose: 400.0 mg/kg/injection, schedule: Q04DX003 (ip), vehicle: saline sonified 108 % of control

Cc1cc(C)[nH]c(=O)c1
inactive: [5] 109 % of control | [6] 102 % of control | [7] 98 % of control

Cc1cc(C)c2ccc(SC#N)c-2c(C)c1
inactive: dose: 100.0 mg/kg/injection, schedule: Q01DX001 (ip), vehicle: carboxymethylcellulose (CMC) 106 % of control | dose: 200.0 mg/kg/injection, schedule: Q01DX001 (ip), vehicle: carboxymethylcellulose (CMC) 95 % of control | dose: 400.0 mg/kg/injection, schedule: Q01DX001 (ip), vehicle: carboxymethylcellulose (CMC) 101 % of control

O=C(Nc1ccc(C(=O)O)cc1)Nc1ccccc1C(F)(F)F
inactive: dose: 100.0 mg/kg/injection, schedule: Q01DX009 (ip), vehicle: gum acacia 100 % of control | dose: 200.0 mg/kg/injection, schedule: Q01DX009 (ip), vehicle: gum acacia 102 % of control | dose: 400.0 mg/kg/injection, schedule: Q01DX009 (ip), vehicle: gum acacia 96 % of control

CC(c1ccccc1)n1cnc2c(=S)nc[nH]c21 (centres undefined)
inactive: [2] 92 % of control | [3] 95 % of control | [4] 103 % of control

COc1ccc2oc(C(=O)O)cc2c1
inactive: dose: 100.0 mg/kg/injection, schedule: Q04DX003 (ip), vehicle: acetone 101 % of control | dose: 200.0 mg/kg/injection, schedule: Q04DX003 (ip), vehicle: acetone 101 % of control | dose: 400.0 mg/kg/injection, schedule: Q04DX003 (ip), vehicle: acetone 101 % of control

Cc1nc(SCc2ccccc2)[nH]c(=O)c1CC(C)O (centres undefined)
inactive: [13] 104 % of control | [14] 97 % of control | [15] 104 % of control

O=C(O)c1c(Br)c(Br)c(Br)c(Br)c1C(=O)Nc1cccc2ccccc12
inactive: [8] 97 % of control | [9] 97 % of control | [10] 94 % of control

c1cc2c3c(c1)[I+]c1cccc(c1-3)[I+]2
inactive: [1] 112 % of control | [2] 116 % of control

COc1ccc(NC(=O)c2ccc(Cl)cc2Cl)c(OC)c1
inactive: dose: 100.0 mg/kg/injection, schedule: Q04DX002 (ip), vehicle: Klucel (hydroxypropylcellulose) (HPC) 102 % of control | dose: 200.0 mg/kg/injection, schedule: Q04DX002 (ip), vehicle: Klucel (hydroxypropylcellulose) (HPC) 97 % of control | dose: 400.0 mg/kg/injection, schedule: Q04DX002 (ip), vehicle: Klucel (hydroxypropylcellulose) (HPC) 102 % of control

CC(CN=Cc1ccccc1[O-])N=Cc1ccccc1[O-].[O]=[V] (centres undefined)
inactive: dose: 5.0 mg/kg/injection, schedule: Q01DX009 (ip), vehicle: saline with Tween-80 94 % of control | dose: 10.0 mg/kg/injection, schedule: Q01DX009 (ip), vehicle: saline with Tween-80 91 % of control | dose: 20.0 mg/kg/injection, schedule: Q01DX009 (ip), vehicle: saline with Tween-80 97 % of control

CCN(CC)CCN(C(=O)C(O)(c1ccccc1)c1ccccc1)C(C)C
inactive: [11] 101 % of control | [12] 108 % of control
